Test results taken from PMC8045554 (Pharmacological research, 2020).
pKd: −log10 of the molar value.

Target: PCSK9 (proprotein convertase subtilisin/kexin type-9) (Homo sapiens, UniProt Q8NBP7)
Assay: SPR with immobilized PCSK9
Format: binding

- pKd: 4.63
Compound: CC/C=C\[C@H](O)[C@H](O)C1=C(C)C(=O)[C@]2(O1)C(=O)N[C@@](OC)(C(=O)c1ccccc1)[C@@H]2O [PS, Pseurotin A]
